Results on twelve molecules are retold here after ChEMBL document CHEMBL1828586 (J Med Chem, 2011).

As a reminder, the IC50 is the concentration that inhibits the measured activity by half. As usually defined, the AUC is the area under the concentration-time curve, a measure of exposure. A lower AUC goes with less exposure. For orientation: Cmax means the peak of the concentration-time curve.

For series [1], the system named is OVCAR-8. The experiment in a line: Anticancer activity against human OVCAR8 cells after 96 hrs by SRB assay. It counts as functional, cell-based. As to conditions: OVCAR-8, 96 h. A general note: Sulforhodamine B stains cellular protein and so reports cell mass.
The nature of series [2]: AUC in Sprague-Dawley rat at 5 mg/kg, iv by LC-MS/MS analysis. It counts as ADME, organism-based. Set-up: dose 5 mg/kg, route intravenous. As to conditions: plasma.
Series [3] is described as follows: AUC in Sprague-Dawley rat at 10 mg/kg, po by LC-MS/MS analysis. It counts as ADME, organism-based. More on the design: dose 10 mg/kg, route oral. The note with it: plasma.
The test system of series [4] is OVCAR-8. The experiment in a line: Resistance factor, ratio of IC50 for human NCI-ADR-RES cells to IC50 for drug-sensitive human OVCAR8 cells. It counts as functional.
In series [5] the test system is LNCaP. The experiment in a line: Anticancer activity against human LNCAP cells after 96 hrs by SRB assay. It counts as functional, cell-based.
Series [6] can be described thus: Anticancer activity against mouse B16-F1 cells after 96 hrs by SRB assay. In kind it is functional, cell-based. The note with it: B16-F1, 96 h.
Series [7] concerns PPC-1. The experiment in a line: Anticancer activity against human PPC1 cells after 96 hrs by SRB assay. It counts as functional, cell-based. The note with it: PPC-1, 96 h.
For series [8], the system named is Liver microsomes. The experiment in a line: Half life in human liver microsomes. It counts as ADME, Microsome.
Series [9] deals with A-375. The experiment in a line: Anticancer activity against human A375 cells after 96 hrs by SRB assay. It counts as functional, cell-based. As to conditions: A-375, 96 h.
In series [10] the test system is NCI/ADR-RES. The experiment in a line: Anticancer activity against P-gp overexpressing human NCI/ADR-RES cells after 96 hrs by SRB assay. In kind it is functional, cell-based.
Series [11] has as its system PC-3. The experiment in a line: Anticancer activity against human PC3 cells after 96 hrs by SRB assay. It counts as functional, cell-based. The note with it: PC-3, 96 h.
The test system of series [12] is DU-145. The experiment in a line: Anticancer activity against human DU145 cells after 96 hrs by SRB assay. It counts as functional, cell-based. The note with it: DU-145, 96 h.
A short description of series [13]: Anticancer activity against human WM164 cells after 96 hrs by SRB assay. It counts as functional, cell-based. The note with it: WM164, 96 h.
A short description of series [14]: AUC in Sprague-Dawley rat at […], iv by LC-MS/MS analysis. In kind it is ADME, organism-based. More on the design: dose 2.5 mg/kg, route intravenous. The note with it: plasma.
A short description of series [15]: AUC in Sprague-Dawley rat at 4 mg/kg, po by LC-MS/MS analysis. In kind it is ADME, organism-based. Set-up: dose 4 mg/kg, route oral. As to conditions: plasma.
The nature of series [16]: Cmax in Sprague-Dawley rat at […], iv by LC-MS/MS analysis. More on the design: dose 2.5 mg/kg, route intravenous. In kind it is ADME, organism-based. As to conditions: in vivo.
Series [17] concerns Rattus norvegicus. The experiment in a line: Oral bioavailability in Sprague-Dawley rat at 4 mg/kg by LC-MS/MS analysis. It counts as ADME, organism-based. As to conditions: in vivo.
Series [18] can be described thus: Cmax in Sprague-Dawley rat at 4 mg/kg, po by LC-MS/MS analysis. It counts as ADME, organism-based. More on the design: dose 4 mg/kg, route oral. As to conditions: in vivo.
Series [19] can be described thus: Aqueous solubility of the compound in PBS at 35 ug/ml and pH 7.4 by LC/MS/MS analysis. As to conditions: buffer. It counts as physicochemical.

Where only a bound is given, the exact number is not on record here.

`CC(=O)O[C@H]1C(=O)[C@@]2(C)[C@H]([C@H](OC(=O)c3ccccc3)[C@]3(O)C[C@H](OC(=O)[C@H](O)[C@@H](NC(=O)c4ccccc4)c4ccccc4)C(C)=C1C3(C)C)[C@]1(OC(C)=O)CO[C@@H]1C[C@@H]2O` [PACLITAXEL]: in [1], the IC50 came to 4.7 nM.

For `COc1cc(C(=O)c2csc(Nc3ccccc3)n2)cc(OC)c1OC.Cl`, the AUC was 4930 ng·h/mL in series [2] and 1080 ng·h/mL in series [3].

Take `COc1cc(/C(=N\C#N)c2csc(-c3ccccc3)n2)cc(OC)c1OC`: in [4], the “Ratio IC50” value is listed as 0.4. In addition, the 50% inhibitory concentration (IC50) in series [5] stood at 23 nM; in [6], 60 nM; in series [7], 20 nM; in [1] it was 34 nM; in series [9], 28 nM; in series [10], 14 nM. Besides, the results for the half-inhibitory concentration (IC50) in [11], in series [12] and in [13] were 27 nM, 42 nM and 27 nM, respectively. In series [8], this molecule yielded a t1/2 of under 5 min.

`COc1cc(C(=O)c2csc(Nc3ccccc3)n2)cc(OC)c1OC`: the “Ratio IC50” value in series [4] was determined as 0.6. The IC50 came out at 51 nM in series [5]; 65 nM in [6]; 54 nM in series [7]; 46 nM in series [1]; 27 nM in series [10]; 57 nM in series [11]. Further, half-maximal inhibition in series [12] (IC50) was put at 70 nM.

`COc1cc(C(=O)c2csc(-c3ccc4[nH]ccc4c3)n2)cc(OC)c1OC`: in series [4], the “Ratio IC50” value is given as 0.4. For the same molecule, the half-inhibitory concentration (IC50) in [6] worked out at 25 nM; in series [7] it was 8 nM; in [1], 10 nM; in series [9], 8 nM; in [10], 4 nM; in series [11], 7 nM. The same molecule showed a half-inhibitory concentration (IC50) in [12] of 13 nM.

For `COc1cc(C(=O)c2csc(Nc3ccc(F)cc3)n2)cc(OC)c1OC.Cl`, the AUC was 6350 ng·h/mL in series [2] and 2670 ng·h/mL in [3].

As for `COc1cc(C(=O)c2csc(-c3ccccc3)n2)cc(OC)c1OC`, the concentration for half-maximal inhibition (IC50) in series [6] came to 55 nM; in series [1], 35 nM; in [13], 64 nM. For the same molecule, the AUC in series [14] is 4650 ng·h/mL; in series [3], 617 ng·h/mL.

With `COc1cc(C(=O)c2cccc(-c3ccccc3)n2)cc(OC)c1OC`, the “Ratio IC50” value in series [4] was determined as 0.4. Besides, the IC50 is 27 nM in series [5]; 39 nM in series [6]; 25 nM in series [7]; 33 nM in series [1]; 30 nM in [9]; 13 nM in series [10].

In the case of `COc1cc(C(=O)c2csc(Nc3ccc(C)cc3)n2)cc(OC)c1OC`, the “Ratio IC50” value in [4] was 0.8. For the same molecule, the figures for the IC50 in [1] and in [10] were 28 nM and 21 nM, respectively.

Turning to `COc1cc(C(=O)c2csc(Nc3ccc(F)cc3)n2)cc(OC)c1OC`, the IC50 in series [5] was 41 nM; in series [1], 44 nM; in series [10], 25 nM; in series [12], 63 nM.

In the case of `COc1cc(/C(=C/C#N)c2csc(-c3ccccc3)n2)cc(OC)c1OC`, the 50% inhibitory concentration (IC50) is 580 nM in series [5]; 5400 nM in [6]; 900 nM in series [7]; 4600 nM in series [9]; 890 nM in series [11]; 2280 nM in [12]. This molecule also displayed a half-inhibitory concentration (IC50) in series [13] of 4900 nM.

As to `COc1cc(C(=O)c2csc(-c3ccc(CN)cc3)n2)cc(OC)c1OC.Cl`, the IC50 is 13 nM in series [5]; 38 nM in [6]; 34 nM in [7]; 26 nM in [1]; 41 nM in [9]; 11 nM in series [10]. For the same molecule, in [11], half-maximal inhibition (IC50) was put at 80 nM. Also, the exposure (AUC) in series [15] is 6.67 ng·h/mL; in series [14], 2320 ng·h/mL. Moreover, the figures for the Cmax in [16] and in series [18] were 3790 ng/mL and 3.2 ng/mL, respectively. Besides, in [17], the F worked out at 0.2%. Moreover, the solubility result in [19] is given as “soluble”.
